# In US12492173B2, “Herbicidal substituted N-tetrazolyl aryl carboxamides” (Bayer Aktiengesellschaft, priority 2019, dated 2025):
# Legend:
# Type in all cases: in vivo
# Digitaria sanguinalis [1] = assay: Pre-emergence herbicidal action, DIGSA; details: dosage 320 g/ha, scored visually after 3 weeks vs untreated controls (100% = plants have died)
# Source text: 1. Pre-Emergence Herbicidal Action Against Harmful Plants Seeds of monocotyledonous and dicotyledonous weed plants and crop plants are laid out in sandy loam soil in wood-fiber pots and covered with soil. The compounds of the invention, formulated in the form of wettable powders (WP) or as emulsion concentrates (EC), are then applied to the surface of the covering soil in the form of an aqueous suspension or emulsion at a water application rate equating to 600 to 800 l/ha, with addition of 0.2% wetting agent. After the treatment, the pots are placed in a greenhouse and kept under good growth conditions for the trial plants. The damage to the test plants is scored visually after a test period of 3 weeks by comparison with untreated controls (herbicidal activity in percent (%): 100% activity=the plants have died, 0% activity=like control plants). […] The tables below illustrate, in an exemplary manner, the […] herbicidal action of the compounds according to the invention, the herbicidal activity being stated in percent. [table] In the experiments that follow, herbicidal action of numerous inventive compounds and the known compounds that are structurally closest from D1 (WO 2012/028579 A1) and D2 (WO 2018/202535 A1) were compared under the above-specified conditions by the pre-emergence and post-emergence method. The example numbers given in the tables relate to the compounds disclosed in the respective documents. In addition to the compounds disclosed in D1 and D2, the following compounds V-1 to V-14 that are encompassed by D1 or D2 but are not compounds specified therein were used in the comparative experiments: • V-1: 2-(methylsulfanyl)-3-(methylsulfinyl)-N-(1-methyl-1H-tetrazol-5-yl)-4-(trifluoromethyl)benzamide • V-2: 2-(methylsulfanyl)-3-(methylsulfonyl)-N-(1-methyl-1H-tetrazol-5-yl)-4-(trifluoromethyl)benzamide • V-3: 2,3-bis(ethylsulfanyl)-N-(1-methyl-1H-tetrazol-5-yl)-4-(trifluoromethyl)benzamide • V-4: 2-chloro-3-(ethylsulfanyl)-N-(1-methyl-1H-tetrazol-5-yl)-4-(trifluoromethyl)benzamide • V-5: 2-chloro-4-iodo-3-(methylsulfanyl)-N-(1-methyl-1H-tetrazol-5-yl)benzamide • V-6: 2-chloro-4-iodo-3-(methylsulfinyl)-N-(1-methyl-1H-tetrazol-5-yl)benzamide • V-7: 2-chloro-4-iodo-3-(methylsulfonyl)-N-(1-methyl-1H-tetrazol-5-yl)benzamide • V-8: 2-bromo-3-(methylsulfanyl)-N-(1-methyl-1H-tetrazol-5-yl)-4-(trifluoromethyl)benzamide • V-9: 2-bromo-3-(methylsulfinyl)-N-(1-methyl-1H-tetrazol-5-yl)-4-(trifluoromethyl)benzamide • V-10: 2-bromo-3-(methylsulfonyl)-N-(1-methyl-1H-tetrazol-5-yl)-4-(trifluoromethyl)benzamide • V-11: 2-bromo-3-(ethylsulfanyl)-N-(1-methyl-1H-tetrazol-5-yl)-4-(trifluoromethyl)benzamide • V-12: 2-bromo-3-(ethylsulfinyl)-N-(1-methyl-1H-tetrazol-5-yl)-4-(trifluoromethyl)benzamide • V-13: 2-bromo-3-(ethylsulfonyl)-N-(1-methyl-1-1H-tetrazol-5-yl)-4-(trifluoromethyl)benzamide • V-14: 2-cyclopropyl-3-(ethylsulfanyl)-N-(1-methyl-1H-tetrazol-5-yl)-4-(trifluoromethyl)benzamide Herbicidal Pre-Emergence Action: […]
# Digitaria sanguinalis [2] = assay: Post-emergence herbicidal action, DIGSA; design: key: % herbicidal action: 100 = plants died, 0 = like control
# Method: (§1) [table] 2. Post-Emergence Herbicidal Action Against Harmful Plants Seeds of monocotyledonous and dicotyledonous weed and crop plants are laid out in sandy loam soil in wood-fiber pots, covered with soil and cultivated in a greenhouse under good growth conditions. 2 to 3 weeks after sowing, the test plants are treated at the one-leaf stage. The compounds of the invention, formulated in the form of wettable powders (WP) or as emulsion concentrates (EC), are then sprayed onto the green parts of the plants in the form of an aqueous suspension or emulsion at a water application rate equating to 600 to 800 l/ha, with addition of 0.2% wetting agent. After the test plants have been left to stand in the greenhouse under optimal growth conditions for about 3 weeks, the action of the preparations is assessed visually in comparison to untreated controls (herbicidal action in percent (%): 100% activity=the plants have died, 0% activity=like control plants). […] The tables below illustrate, in an exemplary manner, the post-emergence herbicidal action of the compounds according to the invention, the herbicidal activity being stated in percent. In the experiments that follow, herbicidal action of numerous inventive compounds and the known compounds that are structurally closest from D1 (WO 2012/028579 A1) and D2 (WO 2018/202535 A1) were compared under the above-specified conditions by the pre-emergence and post-emergence method. The example numbers given in the tables relate to the compounds disclosed in the respective documents. In addition to the compounds disclosed in D1 and D2, the following compounds V-1 to V-14 that are encompassed by D1 or D2 but are not compounds specified therein were used in the comparative experiments: • V-1: 2-(methylsulfanyl)-3-(methylsulfinyl)-N-(1-methyl-1H-tetrazol-5-yl)-4-(trifluoromethyl)benzamide • V-2: 2-(methylsulfanyl)-3-(methylsulfonyl)-N-(1-methyl-1H-tetrazol-5-yl)-4-(trifluoromethyl)benzamide • V-3: 2,3-bis(ethylsulfanyl)-N-(1-methyl-1H-tetrazol-5-yl)-4-(trifluoromethyl)benzamide • V-4: 2-chloro-3-(ethylsulfanyl)-N-(1-methyl-1H-tetrazol-5-yl)-4-(trifluoromethyl)benzamide • V-5: 2-chloro-4-iodo-3-(methylsulfanyl)-N-(1-methyl-1H-tetrazol-5-yl)benzamide • V-6: 2-chloro-4-iodo-3-(methylsulfinyl)-N-(1-methyl-1H-tetrazol-5-yl)benzamide • V-7: 2-chloro-4-iodo-3-(methylsulfonyl)-N-(1-methyl-1H-tetrazol-5-yl)benzamide • V-8: 2-bromo-3-(methylsulfanyl)-N-(1-methyl-1H-tetrazol-5-yl)-4-(trifluoromethyl)benzamide • V-9: 2-bromo-3-(methylsulfinyl)-N-(1-methyl-1H-tetrazol-5-yl)-4-(trifluoromethyl)benzamide • V-10: 2-bromo-3-(methylsulfonyl)-N-(1-methyl-1H-tetrazol-5-yl)-4-(trifluoromethyl)benzamide • V-11: 2-bromo-3-(ethylsulfanyl)-N-(1-methyl-1H-tetrazol-5-yl)-4-(trifluoromethyl)benzamide • V-12: 2-bromo-3-(ethylsulfinyl)-N-(1-methyl-1H-tetrazol-5-yl)-4-(trifluoromethyl)benzamide • V-13: 2-bromo-3-(ethylsulfonyl)-N-(1-methyl-1-1H-tetrazol-5-yl)-4-(trifluoromethyl)benzamide • V-14: 2-cyclopropyl-3-(ethylsulfanyl)-N-(1-methyl-1H-tetrazol-5-yl)-4-(trifluoromethyl)benzamide Herbicidal Pre-Emergence Action: […]
# Hordeum murinum = assay: Post-emergence herbicidal action, HORMU; design: key: % herbicidal action: 100 = plants died, 0 = like control; details: post-emergence, dosage 80 g/ha
# Method: as §1
# Lolium rigidum = assay: Post-emergence herbicidal action, LOLRI; details: dosage 80 g/ha
# Method: as §1
# Cyperus esculentus = assay: Pre-emergence herbicidal action, CYPES; design: key: % activity: 100 = plants have died, 0 = like control plants; details: comparative experiment, 20 g of a.i./ha
# Outline: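 Herbicidal activity is expressed in percent, scored by eye after a 3-week greenhouse period, with 0% matching untreated plants and 100% meaning death. Compounds, as wettable powders or emulsion concentrates, are applied pre-emergence to the covering soil.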
SMILES,herbicidal activity DIGSA (Digitaria sanguinalis [1]),"herbicidal action DIGSA (Digitaria sanguinalis [2]; post-emergence, dosage 80 g/ha)",herbicidal action HORMU (Hordeum murinum),herbicidal action LOLRI (Lolium rigidum),herbicidal action DIGSA (Digitaria sanguinalis [2]; Dosage 80 g/ha),Herbicidal action against CYPES (Cyperus esculentus)
CC[S+]([O-])Cc1c(C(F)(F)F)ccc(C(=O)Nc2nnnn2C)c1Cl (racemic) [Example 1-300],100%,100%,90%,90%,,
COCC[S+]([O-])Cc1c(C(F)(F)F)ccc(C(=O)Nc2nnnn2C)c1Cl (racemic) [Example 1-306],100%,,,,100,
CCn1nnnc1NC(=O)c1ccc(C(F)(F)F)c(C[S+]([O-])CC)c1Cl (centres unmarked) [Example 2-300],100%,100%,90%,80%,,
CCCn1nnnc1NC(=O)c1ccc(C(F)F)c(C[S+](C)[O-])c1SC (centres unmarked) [Example 3-171],100%,,,,90,
CSc1c(C(=O)Nc2nnnn2C)ccc(C(F)(F)F)c1C[S+](C)[O-] (centres unmarked) [Example 1-162],,,90%,80%,,70
Cn1nnnc1NC(=O)c1ccc(C(F)(F)F)c(C[S+]([O-])CC(F)(F)F)c1Cl (racemic) [Example 1-312],100%,100%,80%,,,
CCn1nnnc1NC(=O)c1ccc(C(F)F)c(CSC)c1SC [Example 2-170],100%,,,,100,
Cn1nnnc1NC(=O)c1ccc(C(F)(F)F)c(C[S+]([O-])C2CC2)c1Cl (racemic) [Example 1-303],,,100%,90%,,
Cn1nnnc1NC(=O)c1ccc(C(F)(F)F)c(CS(C)(=O)=O)c1C(F)(F)C(F)(F)F [Example 1-552],100%,,,,90,
Cn1nnnc1NC(=O)c1ccc(C(F)(F)F)c(CS(=O)(=O)C2CC2)c1Cl [Example 1-304],,,80%,80%,,
CCn1nnnc1NC(=O)c1ccc(C(F)F)c(C[S+](C)[O-])c1SC (centres unmarked) [Example 2-171],100%,,,,90,
CSc1c(C(=O)Nc2nnnn2C)ccc(C(F)F)c1C[S+](C)[O-] (centres unmarked) [Example 1-171],100%,,,,100,
CCn1nnnc1NC(=O)c1ccc(C(F)(F)F)c(C[S+]([O-])CC2CC2)c1Cl (centres unmarked) [Example 2-315],100%,,,,100,
Cn1nnnc1NC(=O)c1ccc(C(F)(F)F)c(CSC2CC2)c1Cl [Example 1-302],,,90%,90%,,
COCCSCc1c(C(F)(F)F)ccc(C(=O)Nc2nnnn2C)c1Cl [Example 1-305],,,90%,100%,,
Cn1nnnc1NC(=O)c1ccc(C(F)(F)F)c(CSCC2CC2)c1Cl [Example 1-314],,,100%,90%,,
CCCn1nnnc1NC(=O)c1ccc(C(F)F)c(CS(C)(=O)=O)c1SC [Example 3-172],100%,,,,90,
CCCn1nnnc1NC(=O)c1ccc(C(F)F)c(CSC)c1SC [Example 3-170],100%,,,,100,
Cn1nnnc1NC(=O)c1ccc(C(F)(F)F)c(CS(=O)(=O)CC2CC2)c1Cl [Example 1-316],100%,,,,100,
CSCc1c(I)ccc(C(=O)Nc2nnnn2C)c1Cl [Example 1-362],,,100%,80%,,80
CCn1nnnc1NC(=O)c1ccc(C(F)F)c(C[S+]([O-])CC)c1Cl (centres unmarked) [Example 2-324],100%,100%,90%,,,
CCn1nnnc1NC(=O)c1ccc(C(F)(F)F)c(CSCCOC)c1Cl [Example 2-305],,,100%,80%,,
CCCn1nnnc1NC(=O)c1ccc(C(F)(F)F)c(C[S+](C)[O-])c1SC (centres unmarked) [Example 3-162],,,90%,80%,,
Cn1nnnc1NC(=O)c1ccc(I)c(CS(C)(=O)=O)c1Cl [Example 1-364],100%,,,,100,
